Assay results as given in patent US7666391B2, “Breast homing peptides and methods of identifying same using aminopeptidase P” (Burnham Institute for Medical Research, priority 2001, dated 2010).
Square brackets hold non-standard residues; d marks the D form. Ends that are not written are not given here. Peptide text beside a SMILES is read from it. * marks the point of attachment. X1 = NC(Cc1ccccc1)C(O)C(=O)*; βAla = NCCC(=O)O

Columns and labels:
[1] = biological target: human membrane-bound aminopeptidase P (Homo sapiens, UniProt O43895); conditions: 0.5 mM arg = Pro-Pro in 0.1 M Hepes, pH 8.0; triplicate; cited from earlier work
[2] = biological target: T1, rat membrane-bound aminopeptidase P (Rattus norvegicus, UniProt Q99MA2); conditions: cited from earlier work; for IC50: 0.5 mM arg = Pro-Pro in 0.1 M Hepes, pH 8.0, triplicate
T1 sequence (Q99MA2 23-650): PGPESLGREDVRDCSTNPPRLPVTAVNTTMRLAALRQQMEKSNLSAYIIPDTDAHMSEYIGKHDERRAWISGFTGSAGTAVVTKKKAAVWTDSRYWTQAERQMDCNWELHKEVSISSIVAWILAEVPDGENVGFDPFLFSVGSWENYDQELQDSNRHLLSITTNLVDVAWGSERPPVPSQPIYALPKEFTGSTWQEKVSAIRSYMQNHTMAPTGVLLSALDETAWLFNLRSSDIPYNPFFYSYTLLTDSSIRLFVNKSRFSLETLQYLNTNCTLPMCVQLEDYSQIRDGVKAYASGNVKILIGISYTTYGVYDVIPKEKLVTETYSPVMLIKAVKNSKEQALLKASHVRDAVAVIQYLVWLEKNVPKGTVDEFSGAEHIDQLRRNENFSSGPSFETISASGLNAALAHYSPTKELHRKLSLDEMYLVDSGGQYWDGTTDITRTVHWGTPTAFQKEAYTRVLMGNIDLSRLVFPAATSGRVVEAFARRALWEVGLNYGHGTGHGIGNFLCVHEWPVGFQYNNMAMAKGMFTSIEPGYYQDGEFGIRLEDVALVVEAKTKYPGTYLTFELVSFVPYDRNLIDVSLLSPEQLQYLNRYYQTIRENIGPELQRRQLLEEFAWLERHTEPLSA

[3] = biological target: bovine membrane-bound aminopeptidase P; conditions: cited from earlier work; for IC50: 0.5 mM arg = Pro-Pro in 0.1 M Hepes, pH 8.0, triplicate
breast tissue [4] = assay: In vivo phage homing: recovery of injected phage from tissues; parameters: species or system mice; conditions: breast tissue as compared to control pancreatic tissue
Description: A CX7C library (10^9 plaque forming units) was injected into the tail vein of mice; after seven minutes, the mice were perfused through the heart, and phage rescued from breast tissue. The rescued phage were then amplified and re-injected in four additional consecutive rounds. The number of plaque forming units (pfu) recovered from breast tissue is shown (black bars). As a control, non-recombinant T7 phage were injected (white bars). In round five, the number of pfu of phage recovered from the pancreas also was determined (gray bar).
(§1) The number of pfu recovered from each organ is shown.
A phage display peptide library with the general structure of CX7C, where C is cysteine and X is any amino acid, was constructed in T7 phage essentially as follows. Briefly, complementary oligonucleotides that encoded the random peptide insert as NNK codons, and had 5′EcoRI and 3′HindIII overhangs, were annealed. The resulting double stranded DNA was phosphorylated with T4 polynucleotide kinase (Novagen; Madison, Wis.) and ligated into 1 ug of T7Select415-1b vector arms. The ligated product was directly added to 50 μl of packaging extract and incubated for two hours, yielding 10^8 pfu total recombinants. The recombinants were amplified in 500 ml of liquid culture. […] (Oxford, U.K.: Oxford University Press), 2001.
(§2) In vivo phage selection was performed as described previously with a few modifications. Briefly, mice were anesthetized with avertin and then injected intravenously with 10^9 plaque forming units (pfu) from the CX7C library. Seven minutes after the injection, the mice were perfused through the heart with 10 ml of phosphate buffered saline (PBS). Mammary tissue was then excised, weighed, and homogenized using a Medimachine (Dako, Denmark). The resulting single cells were spun down at 1500 rpm and washed five times with PBS. Phage adherent to the cells were rescued by infecting BL21 bacteria (Novagen), and the phage quantified by plaque assay.

[5] = biological target: monkey membrane-bound aminopeptidase P; conditions: 0.5 mM arg = Pro-Pro in 0.1 M Hepes, pH 8.0; triplicate; cited from earlier work
mitochondrial membranes = assay: Mitochondrial swelling assay; conditions: at a concentration of 10 μM
Text: In one embodiment, the invention provides a conjugate in which the antimicrobial peptide portion promotes disruption of mitochondrial membranes when internalized by eukaryotic cells. In particular, such an antimicrobial peptide preferentially disrupts mitochondrial membranes as compared to eukaryotic membranes. Mitochondrial membranes, like bacterial membranes but in contrast to eukaryotic plasma membranes, have a high content of negatively charged phospholipids. An antimicrobial peptide can be assayed for activity in disrupting mitochondrial membranes using, for example, an assay for mitochondrial swelling (as described in Example I) or another assay well known in the art. […] An antimicrobial peptide that induces significant mitochondrial swelling at, for example, 50 μM, 40 μM, 30 μM, 20 μM, 10 μM, or less, is considered a peptide that promotes disruption of mitochondrial membranes.

aminopeptidase P = assay: Binding of aminopeptidase P cDNA fragment phage to wells coated with […] peptide, with competitors; parameters: species or system human; conditions: 1 mg free peptide; apstatin 10 μg/ml; IgG 10 μg/ml
Description: The peptide was synthesized in a Symphony synthesizer (Rainin Instruments; Emeryville, Calif.), cyclized, and purified by HPLC. The peptide was immobilized on a 96 well Reacti-Bind® polystyrene strip plate (Pierce; Rockford, Ill.). The wells were then treated three times×200 μl SuperBlock® blocking buffer (Pierce).
A human breast carcinoma cDNA library on T7 phage obtained from Novagen was amplified in a single step by infecting BLT 5615 bacteria. Phage suspension (100 μl, 10^9 pfu/ml) in PBS was incubated in the wells for one hour; the wells were then washed five times with 200 μl PBS and once with elution buffer (Novagen) to elute phage bound with low and intermediate affinity. Phage bound to the immobilized peptide were subsequently recovered by incubating BLT 5615 bacteria in the wells for 10 minutes at room temperature.

breast tissue [6] = assay: In vivo blocking of breast homing of phage by co-injected agents; conditions: mice
Description: as §1, §2

Chain of human membrane-bound aminopeptidase P (O43895 22-649): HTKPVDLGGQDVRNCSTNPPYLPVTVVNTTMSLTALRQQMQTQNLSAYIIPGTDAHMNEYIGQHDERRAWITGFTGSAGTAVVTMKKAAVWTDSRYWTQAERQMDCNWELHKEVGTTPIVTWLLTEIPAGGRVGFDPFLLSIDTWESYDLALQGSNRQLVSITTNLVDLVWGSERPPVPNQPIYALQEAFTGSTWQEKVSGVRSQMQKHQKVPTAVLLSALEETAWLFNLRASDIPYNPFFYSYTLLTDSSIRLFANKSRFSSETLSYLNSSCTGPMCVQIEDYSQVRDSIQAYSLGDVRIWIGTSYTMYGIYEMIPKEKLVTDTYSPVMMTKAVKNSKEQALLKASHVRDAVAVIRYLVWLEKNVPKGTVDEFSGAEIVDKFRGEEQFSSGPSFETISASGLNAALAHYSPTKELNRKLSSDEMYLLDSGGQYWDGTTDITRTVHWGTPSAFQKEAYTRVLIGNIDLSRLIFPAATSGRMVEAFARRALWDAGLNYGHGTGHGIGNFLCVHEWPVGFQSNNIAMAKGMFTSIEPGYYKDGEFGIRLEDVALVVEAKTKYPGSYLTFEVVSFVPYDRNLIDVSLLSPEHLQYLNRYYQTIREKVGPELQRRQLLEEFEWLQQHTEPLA

Compound	IC50 [2]	IC50 [3]	further results
CC(NC(=O)C1CCCN1C(=O)C1CCCC1S)C(N)=O (stereo not shown) [Compound 10]	3.4 µM	–	IC50 [1]: 29 µM
C[C@H](NC(=O)[C@@H]1CCCN1C(=O)C1CCCCC1C(=O)NO)C(N)=O (single isomer, unassigned) [Compound 12]	37 µM	50 µM	–
CRSS [CRSS (SEQ ID NO: 3)]	–	–	selective homing identified by in vivo panning (breast tissue [4]): selectively homing to breast tissue
CC(C)C[C@H](N)[C@H](O)C(=O)N1CCC[C@H]1C(=O)N[C@@H](C)C(N)=O [Compound 8]	100 µM	470 µM	–
CC(C)C[C@@H](N)[C@@H](O)C(=O)N1CCC[C@H]1C(=O)N[C@@H](C)C(N)=O [Compound 7]	19 µM	50 µM	–
C[C@H](NC(=O)[C@@H]1CCCN1C(=O)C1CCCC1S)C(N)=O (single isomer, unassigned) [Compound 11]	150 µM	300 µM	IC50 [5]: 300 µM; IC50 [1]: 390 µM
CRTS [CRTS (SEQ ID NO: 4)]	–	–	selective homing identified by in vivo panning (breast tissue [4]): selectively homing to breast tissue
CC(NC(=O)C1CCCN1C(=O)C1CCCN1C(=O)C(O)C(N)Cc1ccccc1)C(=O)NCCC(=O)NC(CS)C(N)=O (stereo not shown) [Compound 4] (X1-PPA[βAla]C-NH2; configuration not given here)	0.66 µM	–	–
D(KLAKLAK)2	–	–	mitochondrial swelling (mitochondrial membranes): marked mitochondrial swelling
CC(C)C[C@@H](N)[C@H](O)C(=O)N1CCC[C@H]1C(=O)N[C@@H](C)C(N)=O [Compound 5]	0.56 µM	4.5 µM	–
CPGPEGAGC (also: cyclized (mode not given here)) [breast homing cyclic peptide, synthesized, cyclized and purified by HPLC]	–	–	effect on binding of aminopeptidase P encoding phage to insolubilized CPGPEGAGC peptide (aminopeptidase P): blocked; effect of coinjection on recovery of CPGPEGAGC phage from breast tissue (breast tissue [6]; 0.5 ml of 2 mg/ml free peptide coinjected): markedly reduced; effect on breast homing / recovery of CRSS phage (breast tissue [6]; anti-aminopeptidase P antiserum or 1 mg free peptide): no effect; selective homing identified by in vivo panning (breast tissue [4]): selectively homing to breast tissue
NC(=O)C1CCCN1C(=O)C1CCCN1C(=O)C(O)C(N)Cc1ccccc1 (stereo not shown) [Compound 3]	390 µM	1300 µM	–
CC(C)C[C@H](N)[C@@H](O)C(=O)N1CCC[C@H]1C(=O)N[C@@H](C)C(N)=O [Compound 6]	0.31 µM	2.1 µM	–
C[C@H](NC(=O)[C@@H]1CCCN1C(=O)[C@@H]1CCCN1C(=O)[C@@H](O)[C@H](N)Cc1ccccc1)C(N)=O [Compound 1, apstatin]	4.1 µM	9.4 µM	effect on binding of aminopeptidase P encoding phage to insolubilized CPGPEGAGC peptide (aminopeptidase P): blocked; Ki ([2]; Yoshimoto et al. 1994): 2.6 µM; Ki ([3]; in brackets in the IC50 cell of Table 2): 7.8 µM
